Results: the NIST ThermoML archive (doi:10.1021/je400178k)

Experiment: molar heat capacity at constant pressure; xn = mol fraction of the nth substance listed
Conditions: 101 kPa, Liquid, Small sample (50 mg) DSC

CN1CCN(C)CC1 [1,4-dimethylpiperazine] + O
molar heat capacity at constant pressure [J/K/mol]
Conditions | x1 = 0.1 | x1 = 0.2007 | x1 = 0.2992 | x1 = 0.4011 | x1 = 0.5 | x1 = 0.6015 | x1 = 0.6993 | x1 = 0.799 | x1 = 0.8983 | x1 = 1
298.15 K | 108.6 | 122.7 | 135.3 | 148.5 | 159.8 | 171.1 | 183.7 | 195.4 | 206.1 | 216.5
303.15 K | 110.2 | 124.5 | 137.6 | 150.9 | 162.6 | 174.8 | 188.1 | 199.9 | 211.3 | 221.7
308.15 K | 111.1 | 125.9 | 139.7 | 152.3 | 164.9 | 176.4 | 189.9 | 202.1 | 212.6 | 222.1
313.15 K | 112 | 127.8 | 141.9 | 154.4 | 166.7 | 178.5 | 192.3 | 204.4 | 214.6 | 223.4
318.15 K | 113 | 129.8 | 144.1 | 156.5 | 169 | 180.6 | 194.4 | 206.7 | 216.5 | 224.6
323.15 K | 114.3 | 132.1 | 146.3 | 158.2 | 171 | 182.5 | 196.6 | 208.8 | 218 | 225.3
328.15 K | 115.5 | 134.5 | 148.7 | 160.6 | 172.7 | 184.8 | 198.7 | 210.8 | 219.8 | 225.7
333.15 K | 116.4 | 136.4 | 151.5 | 163.3 | 174.8 | 186.4 | 200.6 | 213.1 | 221.6 | 227.5
338.15 K | 117.4 | 137.7 | 153.5 | 165.8 | 177.1 | 188.5 | 202.8 | 215.2 | 223.5 | 228.5
343.15 K | 118.4 | 139.3 | 156.2 | 169 | 179.7 | 191.4 | 205.4 | 217.7 | 225.5 | 229.6
348.15 K | 119.5 | 141 | 157.8 | 171.3 | 182.6 | 194.4 | 208.5 | 220.6 | 227.9 | 231.7
353.15 K | 120.8 | 142.4 | 159.4 | 173.6 | 185.7 | 198.7 | 213.5 | 225.5 | 233.5 | 235.9
